According to US20230069749A1, “USE OF POZIOTINIB FOR THE TREATMENT OF CANCERS WITH NRG1 FUSIONS” (Board of Regents, The University of Texas System, priority 2020, published 2023):

Test system: NRG1-DOC4 fusion breast cancer cell line, MDA175-VII
Test: Cell viability of MDA175-VII cells by Cell Titer Glo assay
Format: cell-based
Conditions: 72 hours; for IC50 values: HER2 targeting antibody alone
Procedure: The cell viability of NRG1-DOC4 fusion breast cancer cell line, MDA175-VII, was tested with treatment of poziotinib with and without antibodies and antibody drug conjugates (ADCs) targeting HER2 and HER2/HER3 dimerization. Cell viability was determined by the Cell Titer Glo assay.

Compound	IC50 (poziotinib alone) [pM]	IC50 values [µg/mL]
C=CC(=O)N1CCC(Oc2cc3c(Nc4ccc(Cl)c(Cl)c4F)ncnc3cc2OC)CC1 [poziotinib, 1-[4-[4-(3,4-dichloro-2-fluoroanilino)-7-methoxyquinazolin-6-yl]oxypiperidin-1-yl]prop-2-en-1-one]	287	–
T-DM1	–	0.6345
pertuzumab: recombinant, humanized monoclonal antibody that inhibits dimerization of HER2	–	0.0537
